According to patent US6034251A, “Phenyl-alkyl-imidazoles” (Schering Corporation, priority 1998, dated 2000):

Target: T1, H3 receptors (Cavia porcellus, UniProt Q9JI35)
T1 construct: The source of the H3 receptors in this experiment was guinea pig brain; from tissue; host or cells: guinea pig brain membranes
T1 sequence (Q9JI35 whole entry): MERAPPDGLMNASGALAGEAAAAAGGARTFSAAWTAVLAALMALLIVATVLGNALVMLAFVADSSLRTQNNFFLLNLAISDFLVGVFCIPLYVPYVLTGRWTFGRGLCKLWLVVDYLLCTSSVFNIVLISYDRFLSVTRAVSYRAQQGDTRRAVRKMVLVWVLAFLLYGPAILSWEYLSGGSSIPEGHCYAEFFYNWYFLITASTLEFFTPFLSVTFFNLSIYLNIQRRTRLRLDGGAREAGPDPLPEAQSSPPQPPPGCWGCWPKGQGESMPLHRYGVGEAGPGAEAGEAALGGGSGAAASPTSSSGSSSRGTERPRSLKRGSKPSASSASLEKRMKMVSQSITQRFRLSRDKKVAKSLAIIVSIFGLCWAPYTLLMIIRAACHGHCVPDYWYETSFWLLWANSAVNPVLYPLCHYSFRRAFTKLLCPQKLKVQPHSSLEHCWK
Assay: H3 Receptor Binding Assay
Conditions: guinea pig brain membranes; 3 nM [3H]R-α-methylhistamine or 3 nM [3H]Nα-methylhistamine; 50 mM Tris pH 7.5, 30° C., 30 min
Experimental: The source of the H3 receptors in this experiment was guinea pig brain. The animals weighed 400-600 g. The brain tissue was homogenized using a Polytron in a solution of 50 mM Tris, pH 7.5. The final concentration of tissue in the homogenization buffer was 10% w/v. The homogenates were centrifuged at 1,000×g for 10 min. in order to remove clumps of tissue and debris. The resulting supernatants were then centrifuged at 50,000×g for 20 min. in order to sediment the membranes, which were next washed three times in homogenization buffer (50,000×g for 20 min. each). The membranes were frozen and stored at -70° C. until needed.
All compounds to be tested were dissolved in DMSO and then diluted into the binding buffer (50 mM Tris, pH 7.5) such that the final concentration was 2 μg/ml with 0.1% DMSO. Membranes were then added (400 μg of protein) to the reaction tubes. The reaction was started by the addition of 3 nM [^3 H]R-α-methylhistamine (8.8 Ci/mmol) or 3 nM [^3 H]N^α -methylhistamine (80 Ci/mmol) and continued under incubation at 30° C. for 30 min. Bound ligand was separated from unbound ligand by filtration, and the amount of radioactive ligand bound to the membranes was quantitated by liquid scintillation spectrometry. All incubations were performed in duplicate and the standard error was always less than 10%. Compounds that inhibited more than 70% of the specific binding of radioactive ligand to the receptor were serially diluted to determine a Ki (nM).
In the case of `O=C(/C=C/c1ccc(Cc2c[nH]cn2)cc1)Nc1ccc(Cl)cc1` [Compound 1], the Ki is reported as 0.002 µM. `O=C(/C=C/c1ccc(Cc2c[nH]cn2)cc1)NCc1ccc(Cl)cc1` [Compound 2] showed a Ki of 0.023 µM. With `O=C(/C=C/c1ccc(Cc2c[nH]cn2)cc1)NCCc1ccc(Cl)cc1` [Compound 3] the Ki was 0.007 µM. Molecule `CN(C(=O)/C=C/c1ccc(Cc2c[nH]cn2)cc1)c1ccc(Cl)cc1` [Compound 4] has a Ki of 0.045 µM. Work on `CN(CCc1ccc(Cl)cc1)C(=O)/C=C/c1ccc(Cc2c[nH]cn2)cc1` [Compound 5] yielded a Ki of 0.035 µM. With `O=C(/C=C/c1ccc(Cc2c[nH]cn2)cc1)Nc1ccccc1` [Compound 6] the Ki was 0.002 µM. `O=C(/C=C/c1ccc(Cc2c[nH]cn2)cc1)NC1CCCCC1` [Compound 7] gave a Ki of 0.026 µM. For `O=C(/C=C/c1ccc(Cc2c[nH]cn2)cc1)NCCc1cccc(Cl)c1` [Compound 8], the Ki was 0.011 µM. `CC(Cc1ccc(Cl)cc1)NC(=O)/C=C/c1ccc(Cc2c[nH]cn2)cc1` (stereo not drawn) [Compound 9] showed a Ki of 0.01 µM. With `CC(CNC(=O)/C=C/c1ccc(Cc2c[nH]cn2)cc1)c1ccccc1` (stereo not drawn) [Compound 10] the Ki was 0.019 µM. Work on `COc1ccc(CCNC(=O)/C=C/c2ccc(Cc3c[nH]cn3)cc2)cc1` [Compound 11] yielded a Ki of 0.007 µM. `O=C(/C=C/c1ccc(Cc2c[nH]cn2)cc1)NCCc1c[nH]c2ccccc12` [Compound 12] showed a Ki of 0.045 µM. For `Cn1cnc(Cc2ccc(/C=C/C(=O)Nc3ccc(Cl)cc3)cc2)c1` [Compound 13], the Ki was 0.27 µM. `O=C(/C=C/c1ccc(Cc2c[nH]cn2)cc1)NCCc1ccsc1` [Compound 15] gave a Ki of 0.012 µM. Molecule `O=C(/C=C/c1ccc(Cc2c[nH]cn2)cc1)NCCc1cccc(F)c1` [Compound 16] has a Ki of 0.01 µM. For `O=C(/C=C/c1ccc(Cc2c[nH]cn2)cc1)NCCc1cccnc1` [Compound 17], the Ki was 0.19 µM. For `O=C(/C=C/c1ccc(Cc2c[nH]cn2)cc1)NCCc1ccccc1F` [Compound 18], the Ki was 0.01 µM. `O=C(/C=C/c1ccc(Cc2c[nH]cn2)cc1)NCCc1ccccc1Cl` [Compound 19] showed a Ki of 0.012 µM. With `O=C(/C=C/c1ccc(Cc2c[nH]cn2)cc1)NCCCN1CCCC1` [Compound 20] the Ki was 0.58 µM. `O=C(/C=C/c1ccc(Cc2c[nH]cn2)cc1)NCc1ccco1` [Compound 21] gave a Ki of 0.11 µM. Molecule `Cc1ccc(CCNC(=O)/C=C/c2ccc(Cc3c[nH]cn3)cc2)cc1` [Compound 22] has a Ki of 0.006 µM. For `CC(CCc1ccccc1)NC(=O)/C=C/c1ccc(Cc2c[nH]cn2)cc1` (stereo not drawn) [Compound 23], the Ki was 0.037 µM. Work on `O=C(/C=C/c1ccc(Cc2c[nH]cn2)cc1)NC1CCCc2ccccc21` (stereo not drawn) [Compound 24] yielded a Ki of 0.22 µM. Molecule `O=C(/C=C/c1ccc(Cc2c[nH]cn2)cc1)c1ccc(Cl)cc1` [Compound 25] has a Ki of 0.4 µM. Work on `O=C(/C=C/c1ccc(Cc2c[nH]cn2)cc1)NCc1ccc2ccccc2c1` [Compound 26] yielded a Ki of 0.2 µM. Molecule `CN1CCCC1CCNC(=O)/C=C/c1ccc(Cc2c[nH]cn2)cc1` (stereo not drawn) [Compound 27] has a Ki of 1 µM. With `O=C(/C=C/c1ccc(Cc2c[nH]cn2)cc1)NCCc1ccc(Cl)cc1Cl` [Compound 28] the Ki was 0.036 µM. `O=C(/C=C/c1ccc(Cc2c[nH]cn2)cc1)NCCc1ccccc1` [Compound 29] showed a Ki of 0.017 µM. For `O=C(/C=C/c1ccc(Cc2c[nH]cn2)cc1)Nc1cc(Cl)cc(Cl)c1` [Compound 30], the Ki was 0.012 µM. Molecule `O=C(/C=C/c1ccc(Cc2c[nH]cn2)cc1)Nc1cccc(Cl)c1` [Compound 31] has a Ki of 0.004 µM. In the case of `N#Cc1cccc(NC(=O)/C=C/c2ccc(Cc3c[nH]cn3)cc2)c1` [Compound 32], the Ki is reported as 0.004 µM. `COc1cccc(NC(=O)/C=C/c2ccc(Cc3c[nH]cn3)cc2)c1` [Compound 33] gave a Ki of 0.003 µM. With `Cc1cc(C)cc(NC(=O)/C=C/c2ccc(Cc3c[nH]cn3)cc2)c1` [Compound 34] the Ki was 0.002 µM. Work on `O=C(/C=C/c1ccc(Cc2c[nH]cn2)cc1)Nc1cccc(F)c1` [Compound 35] yielded a Ki of 0.001 µM. `O=C(/C=C/c1ccc(Cc2c[nH]cn2)cc1)Nc1ccc(F)cc1` [Compound 36] showed a Ki of 0.005 µM. In the case of `O=C(/C=C/c1ccc(Cc2c[nH]cn2)cc1)Nc1cccc(OC(F)(F)F)c1` [Compound 37], the Ki is reported as 0.008 µM. Work on `O=C(/C=C/c1ccc(Cc2c[nH]cn2)cc1)Nc1ccc(OC(F)(F)F)cc1` [Compound 38] yielded a Ki of 0.01 µM.

Tested on: histamine H3 receptor
Assay: not given
Conditions: mice, electrically induced convulsions; cited from earlier work
For `S=C(NC1CCCCC1)N1CCC(c2cnc[nH]2)CC1` [thioperamide], the “duration of each phase of convulsion” value is listed as “decreased” and the electroconvulsive threshold is listed as “raised”.
